Measurements: patent US4937232A, “Inhibition of protein kinase C by long-chain bases” (priority 1988, dated 1990)
Where two headings read alike, the source gives them in different places.

Tests used:
[1] = system: phorbol ester binding site (protein kinase C) of neutrophils; experiment: Cellular [3H]-phorbol dibutyrate binding in neutrophils; design: species or system human; details: 50 μM; 15 min
Experimental: Neutrophils (1×10^8 cells/ml) were preincubated with the indicated concentration of sphinganine, palmitic acid, or ceramide for five minutes prior to the addition of 50 nM (final concentration) of [^3 H]-phorbol dibutyrate (specific activity of 8.3 Ci/mMole). The cells were incubated an additional 15 min. in a shaking waterbath at 37° C. The incubation mixtures were filtered using an Amicon filtration manifold model VFM-III and washed 5 times with 5 mls of ice-cold PBS-glucose. The filters were counted using a Beckman LS7000 scintillation counter.

Y-1 tumor cell line = experiment: ACTH stimulation of steroidogenesis in the Y-1 tumor cell line; format: cell-based; details: unpublished studies
human neutrophils [2] = experiment: Phagocytosis of opsonized latex particles by neutrophils; format: cell-based; details: 40 μM sphinganine, ± S.E.M.
Experimental: Latex particles were opsonized by incubating at 37° C. 1 ml of particles with 0.2 ml of human serum plus 1 ml Tris buffer, pH 8.5. […] The reaction was terminated by the addition of 0.4 ml of ice-cold buffer containing 1 mM EDTA. […] Cells are sedimented, while excess beads remain at the ficoll-saline interface. The number of latex beads internalized per cell was determined by microscopic examination.

protein kinase C = experiment: Triton X-100 mixed micellar assay for protein kinase C activity; format: biochemical, rat; details: for inhibition of protein kinase C (specificity): mixed micellar assay
Experimental: Protein kinase C was partially purified from rat brain as described by Hanrun et al (J. Biol. Chem., 260, 10043, 1985), which is hereby incorporated by reference.
Protein kinase C was assayed with Triton X-100 mixed micelles as described by Hanrun et al, (ibid.), Sphingosine was dried down with the lipid cofactors.

human neutrophils [3] = experiment: Cytoplasmic calcium concentration (Quin2); format: cell-based; details: Sphinganine (30 μM) pretreatment
Experimental: Intracellular calcium was measured by the Quin2 method. Briefly, Quin2/acetoxymethylester (50 μM) was preincubated with 1×10^8cell/ml for 20 min. at 37°, prior to 10-fold dilution and continuation of incubation for an additional 40-60 minutes. Cells were reisolated by centrifugation to remove extracellular fluorophore, and fluorescence measurement and calibration were carried out as described by Tsien et al in J. Cell. Biol. 94, 325-334, 1982, using a Perkin-Elmer MPF-44B fluorescence spectrophotometer. Buffer consisted of 140 mM NaCl, 5 mM KCl, 1 mM Na2 PO4, 5.5 mM glucose, 0.5 mM MgSO4, 20 mM Hepes, and 1 mM CaCl2.

HL-60 cells [4] = experiment: [3-3H]sphinganine uptake and metabolism by HL-60 cells; format: in vitro ADME, human
Experimental: Approximately 1×10^6 HL-60 cells in 1 ml of medium were mixed with an equal volume of medium containing 2.5 μm [3-^3 H]sphinganine (equimolar with BSA). After varying time intervals, an aliquot of the cells was removed and counted and a portion was extracted as described below. The extracts were applied to Silica gel H plates and developed in CHCl3 :methanol: 2N NH4 OH (40:10:1, v/v/v), air dried, sprayed with Amplify (Amersham), and subjected to fluorography.

HL-60 cells [5] = experiment: PMA-induced adherence (attachment) of HL-60 cells; format: cell-based, human; details: for Adherent cells (%): 72 h; for IC50: Homo sapiens
Experimental: Cells were centrifuged at 600 g for 3 min, and added at 1×10^5 cells per well in 12-well culture dishes. Medium, PMA, and long-chain bases (prepared as the 1:1 molar complex with fatty acid-free bovine serum albumin) at the indicated concentrations were added for a total volume of 2.0 ml. After the desired times, the cells in suspension were counted and checked for viability (trypan blue exclusion) with a hemacytometer. The attached cells were quantitated by measuring DNA content according to the method of West et al (Anal. Biochem., 147, 289-295, 1985) and by assaying for acid phosphatase according to the method of Schnyder (J. Exp. Med., 148, 434-445, 1978).

HL-60 cells [6] = experiment: Morphology and marker enzymes (ANA esterase, acid phosphatase) of HL-60 cells on day 3; format: cell-based, human; details: 3 days
Text: Expression of most other signs of HL-60 cell differentiation requires longer time periods after treatment with PMA. For these experiments, the cells were examined on day 3 for adherence and acid phosphatase activity (Table IV) and morphology and the marker enzymes alpha-naptholacetate (ANA) esterase and acid phosphatase (Table V).

human neutrophils [7] = experiment: Oxygen consumption (oxidative burst) of human neutrophils; format: cell-based; details: for IC50: Homo sapiens, Neutrophil
Text: Human neutrophils were obtained by continuous flow leukapheresis from normal adults. Residual erythrocytes were removed by hypotonic lysis with a resulting purity of >95% neutrophils. Alternatively peripheral blood was obtained by phlebotomy and neutrophils were isolated by HESPAN (6% Hetastarch, 0.9% NaCl) sedimentaion of erythrocytes, centrifugation through lymphocyte separation medium (9.4% sodium diatrizoate, 6.2% Ficoll), and hypotonic lysis of residual erythrocytes. Isolated cells were resuspended in phosphate buffered saline (PBS)-glucose, containing 0.6 mM CaCl2, 2.6 mM KCl, 1.5 mM KH2 PO4, 0.5 mM MgCl2, 136 mM NaCl, 8 mM Na2 HPO4, 5.5 mM glucose.
Oxygen consumption was measured using a Clark-type electrode with YSI model 53 oxygen monitor. Assays were conducted at 37° C. with 6.5×10^6 cells per ml with a total volume of either 2.5 ml or 4 ml. Effectors were injected into the electrode chamber using a Hamilton syringe. Initial slopes after the addition of the stimuli were used for rate calculations. For activators with a lag prior to the onset of the oxidative burst, maximal rates following the lag were used.

[8] = oxidative burst, PMA activation, read-out: Concentration required for 50% inhibition

## CCCCCCCCCCCCCCC[C@@H](O)[C@@H](N)CO (relative stereo) [Sphinganine, erythro-dihydrosphingosine]
[1]
  displacement of [3H]-phorbol dibutyrate: 60%
Y-1 tumor cell line
  effect on the ACTH-stimulated steroidogenic rate: did not affect
Human neutrophils [2]
  ingested latex beads per cell: 7.2±0.8 beads/cell
Protein kinase C
  inhibition of protein kinase C (specificity): inhibitors
Human neutrophils [3]
  Calcium, Resting: 0.20 ± 0.02 µM
Human neutrophils [3]; 1 μM FMLP
  Calcium, FMLP-Peak: 0.66 ± 0.14 µM
HL-60 cells [4]; [3H]sphinganine, HL-60 cells, 37°
  time in which approximately half of the sphinganine was taken up from the medium by the cells: ≤ 6 h
HL-60 cells [4]; day 2
  free [3H]sphinganine associated with the cells: 0.07 nmol
HL-60 cells [4]; day 3
  free [3H]sphinganine associated with the cells: 0.06 nmol
HL-60 cells [5]; 8 nM PMA + 1 μM sphinganine, 24 h
  % Adherence: 26%
HL-60 cells [5]; 8 nM PMA + 1 μM sphinganine, 24 h, listed as Sa
  % Adherence: 25.5 ± 7.7%
HL-60 cells [5]; 8 nM PMA + 2.5 μM sphinganine
  Adherence: 17.6±6.4%
HL-60 cells [5]; 8 nM PMA + 5 μM sphinganine
  Adherence: 15.0±2.1%
HL-60 cells [5]; 8 nM PMA plus 1 μM sphinganine, 24 h
  number of adherent cells: 0.51 ×10^5
HL-60 cells [5]; 8 nM PMA, 1 μM sphinganine
  Adherent cells (%): 85%
HL-60 cells [5]; 8 nM PMA, 2.5 μM sphinganine
  Adherent cells (%): 74%
HL-60 cells [5]; 8 nM PMA, 5 μM sphinganine
  Adherent cells (%): 70%
HL-60 cells [5]; 1 μM sphinganine, no PMA, 24 h
  % Adherence: 3.7 ± 0.7%
HL-60 cells [5]; HL-60, 8 nM PMA, read-out: 50% inhibition of PMA-induced attachment
  IC50: 3 µM
HL-60 cells [5]; No PMA, 1 μM sphinganine
  Adherent cells (%): 9%
HL-60 cells [5]; No PMA, 2.5 μM sphinganine
  Adherent cells (%): 11%
HL-60 cells [5]; No PMA, 5 μM sphinganine
  Adherent cells (%): 6%
HL-60 cells [6]; 8 nM PMA, adherent cells, 1 μM sphinganine
  Acid phosphatase: 0.64 nmol/h/105 cells
HL-60 cells [6]; 8 nM PMA, adherent cells, 2.5 μM sphinganine
  Acid phosphatase: 0.60 nmol/h/105 cells
HL-60 cells [6]; 8 nM PMA, adherent cells, 5 μM sphinganine
  Acid phosphatase: 0.64 nmol/h/105 cells
HL-60 cells [6]; 8 nM PMA, suspended cells, 1 μM sphinganine
  Acid phosphatase: 0.19 nmol/h/105 cells
HL-60 cells [6]; 8 nM PMA, suspended cells, 2.5 μM sphinganine
  Acid phosphatase: 0.12 nmol/h/105 cells
HL-60 cells [6]; 8 nM PMA, suspended cells, 5 μM sphinganine
  Acid phosphatase: 0.06 nmol/h/105 cells
HL-60 cells [6]; No PMA, suspended cells, 1 μM sphinganine
  Acid phosphatase: 0.25 nmol/h/105 cells
HL-60 cells [6]; No PMA, suspended cells, 2.5 μM sphinganine
  Acid phosphatase: 0.22 nmol/h/105 cells
HL-60 cells [6]; No PMA, suspended cells, 5 μM sphinganine
  Acid phosphatase: 0.16 nmol/h/105 cells
Human neutrophils [7]; 40 μM sphinganine 5-10 min, then washed twice with 50 μM fatty acid-free BSA
  PMA-induced oxygen consumption after washing out sphinganine: 3.7 nmols/min/10^6 cells
Human neutrophils [7]; 50 μM sphinganine 3 min before Arachidonate (83 μM)
  RATE of oxygen consumption, SPHINGANINE: 0.2 nmols O2 consumed/min/10^6 cells
Human neutrophils [7]; 50 μM sphinganine 3 min before Dioctanoyl Glycerol (100 μM)
  RATE of oxygen consumption, SPHINGANINE: 0.3 nmols O2 consumed/min/10^6 cells
Human neutrophils [7]; 50 μM sphinganine 3 min before FMLP (0.5 μM) + Cytochalasin B (5 μg/ml)
  RATE of oxygen consumption, SPHINGANINE: 0.3 nmols O2 consumed/min/10^6 cells
Human neutrophils [7]; 50 μM sphinganine 3 min before Opsonized zymosan (30 μg/ml)
  RATE of oxygen consumption, SPHINGANINE: 0.3 nmols O2 consumed/min/10^6 cells
Human neutrophils [7]; 50 μM sphinganine 3 min before Phorbol Myristate Acetate (1 μM)
  RATE of oxygen consumption, SPHINGANINE: 0.2 nmols O2 consumed/min/10^6 cells
Human neutrophils [7]; activator PMA, read-out: half maximal inhibition of oxygen consumption
  IC50: 6.7 µM
Human neutrophils [7]; activator dioctanoylglycerol, read-out: half maximal inhibition of oxygen consumption
  IC50: 7.4 µM
Human neutrophils [7]; activator opsonized zymosan, read-out: half maximal inhibition of oxygen consumption
  IC50: 5.6 µM
Human neutrophils [7]; approximately 7.5×10^6 cells/ml, read-out: concentration for 50% inhibition, oxygen consumption assay
  IC50: 6 to 8 µM
Human neutrophils [7]; [8]
  IC50: 7 µM
Human neutrophils [7]; preliminary studies
  activation of the oxidative burst by A23187: blocked

## CCCCCCCCCCCCC/C=C/[C@@H](O)[C@@H](N)CO [sphingosine]
Protein kinase C; 2 mol % sphingosine
  Hill number of the PS dependence of protein kinase C activation: 6.9
Protein kinase C; 4 mol % sphingosine
  Hill number of the PS dependence of protein kinase C activation: 8.8
Protein kinase C; 6 mol % PS, 50 μM Ca2+, double reciprocal plots
  type of inhibition with respect to diC18:1: competitive
Protein kinase C; Triton X-100 mixed micelles, 6 mol % PS, 2 mol % diC18:1, read-out: 50% inhibition of protein kinase C activity
  IC50: 100 µM
Protein kinase C; double reciprocal plots
  type of inhibition with respect to phorbol dibutyrate: competitive inhibition
Protein kinase C; fixed PS and diC18:1, 3 and 4 mol % sphingosine
  type of inhibition with respect to Ca2+: appeared competitive
Protein kinase C
  inhibition of protein kinase C (specificity): potent and reversible inhibitor
HL-60 cells [5]; HL-60, read-out: 50% inhibition of PMA-induced attachment
  IC50: 1 µM
Human neutrophils [7]; [8]
  IC50: 9 µM
